Measurements: the supplement of paper PMC4862054

How the values were obtained:
Conditions in all cases: incubation time: 72 h
MDA-MB-436 [1] = assay: drug sensitivity score (DSS), CellTox Green (DSS (AUC-based score)); higher = stronger drug effect (viability inhibition or cytotoxicity); extreme values may be limits of the assay
Summary of the method: (§1)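 Breast cancer cell lines were seeded in 20 µl suspension into 384-well plates already holding compound and incubated for 72 h. Each compound was tested at 5 concentrations in 10-fold steps across its own 10,000-fold range. Plates were normalised to 0.1 % DMSO and a positive kill control after CellTox Green and then CellTiter-Glo readings. The area under the fitted dose-response curve served as the basis for the drug sensitivity score.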

CAL-51 [2] = assay: as above
Summary of the method: as §1

MDA-MB-468 [3] = assay: as above
Summary of the method: as §1

MFM-223 [4] = assay: as above
Summary of the method: as §1

MDA-MB-231 [5] = assay: as above
Summary of the method: as §1

HCC1937 [6] = assay: as above
Summary of the method: as §1

HDQ-P1 = assay: as above
Summary of the method: as §1

MDA-MB-453 [7] = assay: as above
Summary of the method: as §1

Hs578T [8] = assay: as above
Summary of the method: as §1

CAL-148 [9] = assay: as above
Summary of the method: as §1

HCC1599 = assay: drug sensitivity score (DSS), CellTiter-Glo (DSS (AUC-based score)); higher = stronger drug effect (viability inhibition or cytotoxicity); extreme values may be limits of the assay
Summary of the method: as §1

MDA-MB-436 [10] = assay: as above
Summary of the method: as §1

CAL-51 [11] = assay: as above
Summary of the method: as §1

MDA-MB-468 [12] = assay: as above
Summary of the method: as §1

MCF-10A = assay: as above
Summary of the method: as §1

MFM-223 [13] = assay: as above
Summary of the method: as §1

MDA-MB-231 [14] = assay: as above
Summary of the method: as §1

HCC1937 [15] = assay: as above
Summary of the method: as §1

MDA-MB-453 [16] = assay: as above
Summary of the method: as §1

Hs578T [17] = assay: as above
Summary of the method: as §1

BT-474 = assay: as above
Summary of the method: as §1

DU-4475 = assay: as above
Summary of the method: as §1

BT-549 = assay: as above
Summary of the method: as §1

SK-BR-3 = assay: as above
Summary of the method: as §1

CAL-148 [18] = assay: as above
Summary of the method: as §1

HCC1143 = assay: as above
Summary of the method: as §1

CAL-120 = assay: as above
Summary of the method: as §1

Structure (SMILES) | drug sensitivity score (MDA-MB-436 [1]) | drug sensitivity score (CAL-51 [2]) | drug sensitivity score (MDA-MB-468 [3]) | drug sensitivity score (MFM-223 [4]) | drug sensitivity score (MDA-MB-231 [5]) | drug sensitivity score (HCC1937 [6]) | drug sensitivity score (HDQ-P1) | drug sensitivity score (MDA-MB-453 [7]) | drug sensitivity score (Hs578T [8]) | drug sensitivity score (CAL-148 [9]) | drug sensitivity score (HCC1599) | drug sensitivity score (MDA-MB-436 [10]) | drug sensitivity score (CAL-51 [11]) | drug sensitivity score (MDA-MB-468 [12]) | drug sensitivity score (MCF-10A) | drug sensitivity score (MFM-223 [13]) | drug sensitivity score (MDA-MB-231 [14]) | drug sensitivity score (HCC1937 [15]) | drug sensitivity score (MDA-MB-453 [16]) | drug sensitivity score (Hs578T [17]) | drug sensitivity score (BT-474) | drug sensitivity score (DU-4475) | drug sensitivity score (BT-549) | drug sensitivity score (SK-BR-3) | drug sensitivity score (CAL-148 [18]) | drug sensitivity score (HCC1143) | drug sensitivity score (CAL-120)
COc1nc(N)nc2c1ncn2[C@@H]1O[C@H](CO)[C@@H](O)[C@@H]1O [Nelarabine] | 0 | 0 | 0 | 0 | 0 | 0 | 0 | 0 | 0 | 0 | 0 | 0.149 | 0 | 0 | 0 | 0 | 0 | 0 | 0 | 0 | 1.66 | 0 | 0 | 0 | 0 | 0 | 0
Cc1c(CN2CCN(C(=O)[C@H](C)O)CC2)sc2c(N3CCOCC3)nc(-c3cnc(N)nc3)nc12 [GDC-0980] | 0 | 6.08 | 0 | 6 | 0 | 0 | 1.58 | 0 | 0 | 6.07 | 2.28 | 8.47 | 14.7 | 10.1 | 12.6 | 12.7 | 9.56 | 6.52 | 17.5 | 12.6 | 8.66 | 6.71 | 13.1 | 18.5 | 12.4 | 11.4 | 10.9
O=C(CCBr)N1CCN(C(=O)CCBr)CC1 [Pipobroman] | 0 | 0 | 0 | 0 | 0 | 0 | 0 | 0 | 0 | 0 | 0 | 0 | 1.64 | 0 | 0 | 0 | 0 | 0 | 0 | 0 | 0 | 0 | 0 | 0 | 0 | 0 | 0
